Legend:
Type in all cases: functional, cell-based
FHC = test: In vitro inhibition of FHC normal human colon cell proliferation
HT-29 = test: In vitro inhibition of the HT-29 transformed human colon cell proliferation
MDA-MB-231 = test: In vitro inhibition of estrogen receptor negative MDA-MB-231 human breast cancer cell proliferation
MCF7 = test: In vitro inhibition of estrogen receptor positive MCF-7 human breast cancer cell proliferation
HL-60 = test: In vitro inhibition of HL-60 human promyelocytic leukemia cell proliferation

Compound | IC50 (FHC) | IC50 (HT-29) | IC50 (MDA-MB-231) | IC50 (MCF7) | IC50 (HL-60)
CCCCCCCCCCCCCCCCCCOCC(CCP(=O)([O-])OCC[N+](C)(C)C)n1ccnc1 (configuration not stated) | 5 µM | 2 µM | 4.5 µM | 3 µM | 2 µM
CCCCCCCCCCCCCCCCCCOCC(CCP(=O)([O-])OCC[N+](C)(C)C)n1cncn1 (configuration not stated) | – | – | 6 µM | 3 µM | 3 µM
CCCCCCCCCCCCCCCCCCOCC(COP(=O)([O-])OCC[N+](C)(C)C)OC (configuration not stated) [EDELFOSINE] | 45 µM | 2 µM | 5 µM | – | 2 µM
